Test results taken from US7575640B2, “Method for producing sugar and sugar-containing products from sugar-containing plant raw materials” (Zuckerforschung Tulln Gesellschaft m.b.H., priority 2003, dated 2009).
In brackets after ≈: the same amount, converted by molar mass. Read-outs that look alike come from different tables or passages of the source.

How the values were obtained:
[1] = system: thermophilic bacteria; assay: pH drop (acid formation) in liquid culture medium inoculated with crude juice from sugar beet extraction, 65° C.; assay type: cell-based, thermophilic bacteria (mixed culture); details: 65° C.; for pH / ΔpH/h: 10 mg/l added at pH 6.47 (5.10 h)
Procedure: If a sugar-containing substrate, e.g. a sugar-containing liquid culture medium, as it is common in microbiology, is either non-sterilized or incubated after inoculation with a bacterial strain, an acid formation will occur which is the easiest to recognize by a drop in the pH. The same phenomenon will occur when incubating normal sugar-containing plant juices, e.g. beet juice. In an industrial process, e.g. in the recovery of sugar juice from sugar beets, a drop in the pH by degradation of sugar means a loss of sugar and a need for an alkalizing agent. Moreover, a drop in the pH with an increase in the germ content in the substrate often is associated with an unpleasant gas and nitrite formation.
(§1) A liquid culture medium, as commonly used in microbiology and consisting of 10 g of Bacto-peptone, 5 g of meat extract, 5 g of yeast extract, 1 g of glucose, 1 g of K2HPO4, 0.1 g of MgSO4*7H2O and 0.01 g of FeSO4*7H2O per liter of distilled water, is sterilized in conventional manner for 20 min at 120° C. and inoculated, in a vessel kept at a temperature of 65° C., with 20 ml of crude juice from a large-scale sugar beet extraction, wherein the pH is registered on a recorder. Upon the growth of thermophilic bacteria, the pH drops progressively. This indicates a microorganism-caused acid formation.
A mixed culture according to Example 1 is prepared.

[2] = system: pure culture strain DSMZ 457; assay: pH drop in liquid culture medium inoculated with pure culture strain; assay type: cell-based
Procedure: as §1
A liquid culture medium, as in Example 1, is inoculated with a pure culture strain DSMZ 457 of the Deutsche Sammlung für Mikroorganismen und Zellkulturen GmbH. A pH drop starting after 1 hour can be stopped by two additions of 0.2 ml of a 1% alcoholic solution of myristic acid (C14), corresponding to a concentration of merely 4 mg/l. After 4 hours, a renewed pH drop starts which can be stopped for further 7 hours by a further addition of 2 mg/l, i.e. in sum 6 mg/l.

[3] = system: mesophilic mixed culture; assay: pH drop in mixed culture incubated at 35° C.; assay type: cell-based
Procedure: as §1
A mixed culture according to Example 1 is prepared, yet incubated at 35° C. A pH drop starting after 5 hours cannot be stopped by 11 successive additions of 1 ml of a 1% alcoholic solution of myristic acid per liter culture, corresponding to 110 mg/l, and a further addition of 4 ml, i.e. in sum 150 mg/l.

[4] = system: thermophilic bacteria; assay: determination of MIC by stepwise addition until stabilization of the pH, 65° C.; assay type: cell-based, thermophilic bacteria (mixed culture)
Procedure: To illustrate the antimicrobial activity within the scope of sugar production, examples are carried out with […] compounds by way of example. […] Upon the growth of thermophilic bacteria, the pH drops progressively. This indicates a microorganism-caused acid formation. […] The fatty acid compounds used in this Example are myristic acid and lauric acid, and their potassium salts, respectively. In this case, the acids were used both individually and in a 1:1 mixture, the salts were exclusively used in a 1:1 mixture.

[5] = system: yeasts; assay: efficacy relative to yeasts; assay type: cell-based; details: compared with thermophilic bacteria
[6] = Time 4.50 h, 2×2 mg/l added between pH 6.81 and 6.51
[7] = Time 6.25 h, 11×10 and 1×40 mg/l being added between pH 6.55 and 6.30
[8] = Time 6.50 h, 11×10 and 1×40 mg/l added between pH 6.55 and 6.30

Structure (SMILES): CCCCCCCCCCCCCC(=O)O [myristic acid]
- duration of effectiveness (pH drop stopped) ([1]; 10 mg/l, mixed culture): at least 14 h
- effect on pH drop ([1]; 10 mg/l, mixed culture): suddenly and lastingly stopped
- pH ([1]; Time 5.50 h): 6.47
- ΔpH/h ([1]; Time 5.50 h): 0.00
- pH ([1]; Time 6 h): 6.47
- ΔpH/h ([1]; Time 6 h): 0.00
- pH ([1]; Time 7 h): 6.48
- ΔpH/h ([1]; Time 7 h): −0.01
- pH ([1]; Time 10 h): 6.50
- ΔpH/h ([1]; Time 10 h): −0.01
- pH ([1]; Time 13 h): 6.53
- ΔpH/h ([1]; Time 13 h): −0.01
- pH ([1]; Time 16 h): 6.55
- ΔpH/h ([1]; Time 16 h): −0.01
- pH ([1]; Time 19 h): 6.53
- ΔpH/h ([1]; Time 19 h): 0.01
- time until renewed pH drop ([2]; 4 mg/l): 4 hours
- pH [2, 6]: 6.51
- ΔpH/h [2, 6]: 0.60
- pH ([2]; Time 5 h, 4 mg/l): 6.50
- ΔpH/h ([2]; Time 5 h, 4 mg/l): 0.02
- pH ([2]; Time 6 h, 4 mg/l): 6.51
- ΔpH/h ([2]; Time 6 h, 4 mg/l): −0.01
- pH ([2]; Time 7 h, 4 mg/l): 6.51
- ΔpH/h ([2]; Time 7 h, 4 mg/l): 0.00
- pH ([2]; Time 8 h, 4 mg/l): 6.51
- ΔpH/h ([2]; Time 8 h, 4 mg/l): 0.00
- pH ([2]; Time 9 h, 4 mg/l): 6.48
- ΔpH/h ([2]; Time 9 h, 4 mg/l): 0.03
- ΔpH/h ([2]; Time 10.2 h, 4 mg/l, further 2 mg/l added at pH 6.39): 0.08
- pH ([2]; Time 10.2 h, 4 mg/l, further 2 mg/l added at this pH): 6.39
- pH ([2]; Time 11 h, in sum 6 mg/l): 6.39
- ΔpH/h ([2]; Time 11 h, in sum 6 mg/l): 0.00
- pH ([2]; Time 12 h, in sum 6 mg/l): 6.39
- ΔpH/h ([2]; Time 12 h, in sum 6 mg/l): 0.00
- pH ([2]; Time 13 h, in sum 6 mg/l): 6.39
- ΔpH/h ([2]; Time 13 h, in sum 6 mg/l): 0.00
- pH ([2]; Time 14 h, in sum 6 mg/l): 6.39
- ΔpH/h ([2]; Time 14 h, in sum 6 mg/l): 0.00
- pH ([2]; Time 15 h, in sum 6 mg/l): 6.39
- ΔpH/h ([2]; Time 15 h, in sum 6 mg/l): 0.00
- further time pH drop stopped ([2]; further 2 mg/l, in sum 6 mg/l): 7 hours
- concentration that stops the pH drop ([2]; two additions of 2 mg/l, pure culture): 4 mg/l
- pH [3, 7]: 6.41
- ΔpH/h [3, 7]: 0.56
- pH [3, 8]: 6.30
- ΔpH/h [3, 8]: 0.44
- pH ([3]; Time 6.75 h, in sum 150 mg/l): 6.19
- ΔpH/h ([3]; Time 6.75 h, in sum 150 mg/l): 0.44
- pH ([3]; Time 7.00 h, in sum 150 mg/l): 6.06
- ΔpH/h ([3]; Time 7.00 h, in sum 150 mg/l): 0.52
- pH ([3]; Time 7.25 h, in sum 150 mg/l): 5.94
- ΔpH/h ([3]; Time 7.25 h, in sum 150 mg/l): 0.48
- concentration that stops the pH drop ([3]; pH drop cannot be stopped): > 150 mg/l
- MIC ([4]; dissolved in ethanol, 10 mg/l steps, maximum 150 mg/l, 65° C., read-out: Min. Inhibitory Conc. (MIC)): 10 µg/mL (≈ 43.8 µM)
- MIC ([4]; dissolved in ethanol, steps of 2 mg/l, read-out: Min. Inhibitory Conc. (MIC)): 6 µg/mL (≈ 26.3 µM)
- MIC ([4]; text summary of Example 9, read-out: MIC (concentration successfully used)): 6000 µg/mL (≈ 26300 µM)
- efficacy relative to yeasts [5]: markedly lower efficacy
